# From patent US20100305213A1, “TREATMENT OF HEART DISEASE USING BETA-BLOCKERS” (Bayer Animal Health GmbH, priority 2007, published 2010)
# Structures can show the parent of a compound that is named as a salt.
# Assays:
# [1] = system: inward rectifier K+ current (IK1); experiment: Inward rectifier K+ current recordings in isolated ventricular myocytes of treated dogs; type: in vivo, dog
# Excerpt: After altogether 5 weeks of treatment the dogs were anaesthetized according to standard veterinary procedures and ex vivo ventricular myocytes were directly isolated from the mid-lateral left ventricular free wall using an isolation procedure described by Kubalova et al., which results in isolation of myocytes from the midmyocardial region. Afterwards the animals were humanely euthanized. Recordings of single cell action potentials and K+ currents were made. See Kubalova et al., Abnormal intrastore calcium signaling in chronic heart failure, Proc Nat Acad Sci 2005; 102: 14104-14109. There are two K+ currents which are expected to modulate the resting membrane potential and the action potential duration, and are known to be altered during heart failure, the inward and the outward K+ currents. The inward rectifier K+ current (IK1) is the primary determinant of the resting membrane potential (inward current) and modulates the final phase of repolarization (outward current). Reductions in inward current result in depolarization of the resting potential, while reductions in outward current can contribute to action potential duration prolongation. IK1 was recorded in each of the four groups, data was recorded and analyzed. The peak outward K+ current was recorded in each of the four groups (FIG. 5 bottom), data was recorded and analyzed.
# [2] = system: isolated ventricular myocytes; experiment: Action potentials in ventricular myocytes isolated ex vivo after 5 weeks of treatment (perforated whole cell patch clamp); set-up: species or system dog; details: for APD50 compared to the placebo-treated heart failure group / APD90 compared to normal controls / heart failure induced prolongation of the APD90: 0.5 and 1 Hz
# Excerpt: After altogether 5 weeks of treatment the dogs were anaesthetized according to standard veterinary procedures and ex vivo ventricular myocytes were directly isolated from the mid-lateral left ventricular free wall using an isolation procedure described by Kubalova et al., which results in isolation of myocytes from the midmyocardial region. Afterwards the animals were humanely euthanized. Recordings of single cell action potentials and K+ currents were made. See Kubalova et al., Abnormal intrastore calcium signaling in chronic heart failure, Proc Nat Acad Sci 2005; 102: 14104-14109. For measurement of the action potentials myocytes were placed in a laminin coated cell chamber and superfused with a bath solution. Only quiescent myocytes with sharp margins and clear striations were used for the electrophysiological study. Borosilicate glass micropipettes were filled with a pipette solution that was pH adjusted to 7.2. Perforated whole cell patch clamp was used to minimize alterations in the intracellular milieu. Action Potentials (APs) were recorded with the perforated whole cell patch techniques. Action potentials were recorded in isolated ventricular myocytes, which were characterized in the standard manner as the durations to 50% and 90% of repolarization. APs were measured as the average of the last 10 (steady-state) APs, obtained during a train of twenty five APs at each stimulation rate. An average of 2-3 myocytes was measured from each heart failure dog. Action Potentials were recorded in four groups. The following numbers of recordings were obtained and used in the analyzed data (number (n) indicates the number of myocytes): Control (CTRL, untreated, healthy dogs) (n=10) HF-placebo (placebo-treated dogs in heart failure (HF-PL)) (n=17) HF-C-Up bisoprolol, according to conservative up-titration bisoprolol treated dogs in heart failure (n=13) HF-A-Up bisoprolol, according to aggressive up-titration bisoprolol treated dogs in heart failure (n=15) Resting membrane potential was measured at 0.5 Hz and 1 Hz to bracket the physiologic range of resting heart rates (FIG. 1).
# [3] = system: dogs with pacing-induced heart failure; type: in vivo
# Description: A study was conducted with two groups of conscious dogs with pacing-induced heart failure to determine the tolerance and potential effects of different doses of bisoprolol fumarate. […] ECG (PQ, QRS, RR, QT, QTcF, and QTcV intervals), echocardiography (left ventricular shortening fraction (LVSF) and systemic arterial blood pressure (SBP, DBP, MAP and pulse pressure) were monitored in the two groups. Heart failure was produced by rapid ventricular pacing to reduce left ventricular shortening fraction (LVSF) greater than 15% from baseline.
# In the first group, the conservative up-titration study, the dogs were treated with weekly increasing oral doses of 0.005, 0.01, 0.03, 0.05 and 0.1 mg/kg bisoprolol fumarate. In the second group, the aggressive up-titration study, the dogs were treated with weekly increasing doses of 0.01, 0.05, 0.1, 0.5 and 1 mg/kg bisoprolol fumarate on top of a dose of 0.5 mg/kg of enalapril, 4 mg/kg of furosemide, and 0.003 mg/kg of digoxin. These two groups were compared to a placebo group that was treated with the same doses of the standard heart failure therapy (enalapril, furosemide and digoxin) alone.
# [4] = system: transient outward K+ current (Ito); experiment: Transient outward K+ current recordings in isolated ventricular myocytes of treated dogs; type: in vivo, dog
# Excerpt: After altogether 5 weeks of treatment the dogs were anaesthetized according to standard veterinary procedures and ex vivo ventricular myocytes were directly isolated from the mid-lateral left ventricular free wall using an isolation procedure described by Kubalova et al., which results in isolation of myocytes from the midmyocardial region. Afterwards the animals were humanely euthanized. Recordings of single cell action potentials and K+ currents were made. See Kubalova et al., Abnormal intrastore calcium signaling in chronic heart failure, Proc Nat Acad Sci 2005; 102: 14104-14109. There are two K+ currents which are expected to modulate the resting membrane potential and the action potential duration, and are known to be altered during heart failure, the inward and the outward K+ currents. The transient outward K+ current, (Ito) was recorded in all four groups and data was recorded and analyzed.
# [5] = aggressive up-titration (HF-A-Up)
# [6] = conservative up-titration (HF-C-Up)
structure (smiles),measurement,setting,value
CC(C)NCC(O)COc1ccc(COCCOC(C)C)cc1 (stereo not drawn) [bisoprolol fumarate],"inward IK1 current conductance, difference between the groups",[1]; all four groups,no difference
same,peak outward IK1 current,[1]; conservative up-titration (HF-C-Up) relative to placebo (HF PL) and HF-A-Up,increased
same,APD50 compared to normal control myocytes,[2]; [5],did not differ
same,APD50 compared to the placebo-treated heart failure group,[2]; [5],statistically significant reduction
same,APD90 compared to normal controls,[2]; [5],did not differ
same,heart failure induced prolongation of the APD90,[2]; [5],significantly attenuated
same,APD50 compared to normal control myocytes,[2]; [6],did not differ
same,APD50 compared to the placebo-treated heart failure group,[2]; [6],statistically significant reduction
same,APD90 compared to normal controls,[2]; [6],did not differ
same,heart failure induced prolongation of the APD90,[2]; [6],significantly attenuated
same,HF-induced changes in the action potential durations (particularly APD90 prolongation),"[2]; summary, both conservative and aggressive up-titration dosing regimens, physiologically relevant heart rates",significantly attenuated and even reversed to the physiological normal
same,tolerance,"[3]; dog, in vivo, po",well tolerated
same,cardioselective β-blockade effect (prolongation of PQ interval and reduction of heart rate),"[3]; doses used in both up-titration groups, dogs with heart failure",near to maximum cardioselective β-blockade effect
same,effects of heart failure on Ito,[4]; aggressive up-titration protocol (HF-A-Up Bis),did not alter
same,heart failure induced reductions in Ito,"[4]; conservative up-titration protocol (HF-C-Up Bis), at the two highest test potentials (+40 and +50 mV)",significantly attenuated
